Laboratory results published in US9156811B2 (priority 2008, dated 2015).

These compounds were tested on Trypanosome (T. brucei brucei) (assay: In-vitro antitrypanosomal efficacy assay (cell growth, resazurin)). Conditions: T. brucei brucei, blood stream form, variant 221.
Format: cell-based
Description: To column 12, 200 μl media was added to provide a no cells control. Plates were then incubated at 37° C. in an atmosphere of 5% CO2 for 69 hours, before the addition of 20 μl of 500 μM rezasurin solution, and a further incubation period of 4 hours. […] Concentration effect curves were fitted using non-linear regression using XLFit 4.2 and EC50 values determined.
With `Cc1c(N[S+](=O)([O-])c2ccc(-c3ccc(Cl)c(CN(C)C)c3)cc2)c(CC(C)C)nn1C` [DDD100143] the “ED50 (μM) T. brucei” value was 0.017 µM.
For `Cc1nn(C)c(C)c1N(C)[S+](=O)([O-])c1c(Cl)cc(CCCCCCn2ccnc2)cc1Cl` [DDD99833], the “ED50 (μM) T. brucei” value was 0.018 µM.
`Cc1c(N[S+](=O)([O-])c2ccc(-c3cc(CN(C)C)ccc3Cl)cc2)c(CC(C)C)nn1C` [DDD99826] was tested, and the “ED50 (μM) T. brucei” value was 0.104 µM.
In the case of `CCc1nn(C)c(CC)c1N(C)[S+](=O)([O-])c1c(Cl)cc(CCCN2CCN(C)CC2)cc1Cl` [DDD99836], the “ED50 (μM) T. brucei” value is reported as 0.013 µM.
For `Cc1nn(C)c(C)c1N(C(F)F)[S+](=O)([O-])c1ccc(-c2ccnc(N3CCNCC3)c2)cc1` [DDD100888], the “ED50 (μM) T. brucei” value was 0.003 µM.
In the case of `Cc1nn(C)c(C)c1N(C)[S+](=O)([O-])c1ccc(CCCCCCCn2ccnc2)cc1` [DDD99838], the “ED50 (μM) T. brucei” value is reported as over 1 µM.
In the case of `Cc1nn(C)c(C)c1N(C(F)F)[S+](=O)([O-])c1ccc(-c2cccc(C3CCNCC3)c2)cc1` [DDD100891], the “ED50 (μM) T. brucei” value is reported as 0.129 µM.
With `Cc1nn(C)c(C)c1N(CC(F)(F)F)[S+](=O)([O-])c1c(Cl)cc(CCCC2CCNCC2)cc1Cl` [DDD100151] the “ED50 (μM) T. brucei” value was 0.034 µM.
In the case of `Cc1c(N[S+](=O)([O-])c2ccc(-c3cccc(CN4[C@@H](C)CC[C@@H]4C)c3)cc2)c(CC(C)C)nn1C` [DDD100790], the “ED50 (μM) T. brucei” value is reported as 0.269 µM.
`Cc1nn(C)c(C)c1N(CC(F)F)[S+](=O)([O-])c1c(Cl)cc(CCCN2CCCNCC2)cc1Cl` [DDD100142] was tested, and the “ED50 (μM) T. brucei” value was 0.014 µM.

Same assay, conditions: T. brucei cell growth
`Cc1nn(C)c(C)c1N[S+](=O)([O-])c1cc(C(F)(F)F)cc(C(F)(F)F)c1` [DDD61393] was tested, and the “ED50 (μM) T. brucei” value was over 1 µM.
For `Cc1nn(C)c(C)c1N(CC(F)F)[S+](=O)([O-])c1ccc(-c2ccnc(N3CCNCC3)c2)cc1` [DDD90111], the “ED50 (μM) T. brucei” value was 0.005 µM.
With `CCN(CC)Cc1ccc(-c2cc(Cl)c([S+](=O)([O-])Nc3c(C)nn(C)c3C)c(Cl)c2)cc1` [DDD85639] the “ED50 (μM) T. brucei” value was over 1 µM.
`Cc1nn(C)c(C)c1N(C)[S+](=O)([O-])c1ccc(CCCC2CCNCC2)cc1` [DDD90112] was tested, and the “ED50 (μM) T. brucei” value was 0.270 µM.
For `CCCOc1cc(CN2CCN(C)CC2)cc(-c2ccc([S+](=O)([O-])Nc3c(C)nn(C)c3C)cc2)c1` [DDD88187, 5′-(4-Methyl-piperazin-1-ylmethyl)-3′-propoxy-biphenyl-4-sulfonic acid (1,3,5-trimethyl-1H-pyrazol-4-yl)-amide], the “ED50 (μM) T. brucei” value was 2.15 µM.
For `Cc1nn(C)c(C)c1N[S+](=O)([O-])c1c(Cl)cc(-c2ccc(CN3CCN(C)CC3)cc2)cc1Cl` [DDD85644], the “ED50 (μM) T. brucei” value was 2.1 µM.
For `Cc1nn(C)c(C)c1N[S+](=O)([O-])c1ccc(-c2cccc(CN3CCNCC3)c2)cc1` [DDD86317, 3′-piperazin-1-ylmethyl-biphenyl-4-sulfonic acid (1,3,5-trimethyl-1H-pyrazol-4-yl)-amide], the “ED50 (μM) T. brucei” value was 0.02 µM.
In the case of `Cc1nn(C)c(C)c1N[S+](=O)([O-])c1ccc(N(C)CCO)nc1` [DDD86307], the “ED50 (μM) T. brucei” value is reported as over 1 µM.
For `Cc1nn(C)c(C)c1N[S+](=O)([O-])c1ccc(C#N)cc1Cl` [DDD73228], the “ED50 (μM) T. brucei” value was over 1 µM.
With `Cc1nn(C)c(C)c1N[S+](=O)([O-])c1ccc2nc(Cl)ccc2c1` [DDD88533] the “ED50 (μM) T. brucei” value was over 10 µM.
In the case of `Cc1nn(C)c(C)c1N[S+](=O)([O-])c1cc(Cl)cc(Cl)c1O` [DDD73229], the “ED50 (μM) T. brucei” value is reported as over 1 µM.
`Cc1nn(C)c(C)c1N[S+](=O)([O-])c1ccc(-c2ccnc(N3CCNCC3)c2)cc1` [DDD86213, 4-(2-piperazin-1-yl-pyridin-4-yl)-N-(1,3,6-trimethyl-1H-pyrazol-4-yl)-benzenesulfonamide] was tested, and the “ED50 (μM) T. brucei” value was 0.003 µM.
In the case of `Cc1cc(CCCN2CCN(C)CC2)cc(C)c1[S+](=O)([O-])N(C)c1c(C)nn(C)c1C` [DDD99818], the “ED50 (μM) T. brucei” value is reported as 0.047 µM.
`Cc1nn(C)c(C)c1N(C)[S+](=O)([O-])c1ccc(-c2cccc(CN3CCN(C)CC3)c2)cc1` [DDD88196, 3′-(4-Methyl-piperazin-1-ylmethyl)-biphenyl-4-sulfonic acid methyl-(1,3,5-trimethyl-1H-pyrazol-4-yl)-amide] was tested, and the “ED50 (μM) T. brucei” value was 0.05 µM.
With `Cc1nn(C)c(C)c1N[S+](=O)([O-])c1ccc(NCCN2CCN(c3ccccc3)CC2)nc1` [DDD86301] the “ED50 (μM) T. brucei” value was over 1 µM.
In the case of `Cc1nn(C)c(C)c1N[S+](=O)([O-])c1c(Cl)cc(-c2ccccc2OCC(C)C)cc1Cl` [DDD73273], the “ED50 (μM) T. brucei” value is reported as over 1 µM.
`Cc1nn(C)c(C)c1N(C)[S+](=O)([O-])c1c(Cl)cc(CCCC2CCN(C)CC2)cc1Cl` [DDD90146] was tested, and the “ED50 (μM) T. brucei” value was 0.002 µM.
In the case of `Cc1nn(C)c(C)c1N[S+](=O)([O-])c1ccc(-c2cccc(CN3CCOCC3)c2)cc1` [DDD86314, 3′-Morpholin-4-ylmethyl-biphenyl-4-sulfonic acid (1,3,5-trimethyl-1H-pyrazol-4-yl)-amide], the “ED50 (μM) T. brucei” value is reported as over 1 µM.
In the case of `Cc1cc([S+](=O)([O-])Nc2c(C)nn(C)c2C)c(Cl)cc1Cl` [DDD60006], the “ED50 (μM) T. brucei” value is reported as over 1 µM.
In the case of `Cc1cc([S+](=O)([O-])Nc2c(C)nn(C)c2C)ccc1Br` [DDD71235], the “ED50 (μM) T. brucei” value is reported as over 1 µM.
`Cc1nn(C)c(C)c1N[S+](=O)([O-])c1ccc(-c2cccc(CN(C)C)c2)cc1` [DDD88005, 3′-Dimethylaminomethyl-biphenyl-4-sulfonic acid (1,3,5-trimethyl-1H-pyrazol-4-yl)-amide] was tested, and the “ED50 (μM) T. brucei” value was 0.1 µM.
In the case of `Cc1nn(C)c(C)c1N[S+](=O)([O-])c1c(Cl)cc(CCCN2CCN(C)CC2)cc1Cl` [DDD87769, 2,6-Dichloro-4-[3-(4-methyl-piperazin-1-yl)-propyl]-N-(1,3,5-trimethyl-1H-pyrazol-4-yl)-benzenesulfonamide], the “ED50 (μM) T. brucei” value is reported as 0.008 µM.
`Cc1nn(C)c(C)c1N[S+](=O)([O-])c1c(Cl)cc(-c2ccc(N3CCNCC3)nc2)cc1Cl` [DDD85645] was tested, and the “ED50 (μM) T. brucei” value was 0.23 µM.
With `Cc1nn(C)c(C)c1N(CC(F)(F)F)[S+](=O)([O-])c1ccc(-c2cccc(CN3CCN(C)CC3)c2)cc1` [DDD90057] the “ED50 (μM) T. brucei” value was 0.73 µM.
For `COc1cc(NC(C)=O)ccc1[S+](=O)([O-])Nc1c(C)nn(C)c1C` [DDD71590], the “ED50 (μM) T. brucei” value was over 1 µM.
For `Cc1c(N(C)[S+](=O)([O-])c2ccc(-c3cccc(C4CCNCC4)c3)cc2)c(CC(C)C)nn1C` [DDD99815], the “ED50 (μM) T. brucei” value was 0.123 µM.
In the case of `Cc1nn(C)c(C)c1N[S+](=O)([O-])c1ccc(-c2cccc(CN3CCNC(c4ccccc4)C3)c2)cc1` (stereo not drawn) [DDD87754, 3′-(3-Phenyl-piperazin-1-ylmethyl)-biphenyl-4-sulfonic acid (1,3,5-trimethyl-1H-pyrazol-4-yl)-amide], the “ED50 (μM) T. brucei” value is reported as 1.6 µM.
In the case of `Cc1nn(C)c(C)c1N(CC1OCCO1)[S+](=O)([O-])c1c(Cl)cc(Br)cc1Cl` [DDD85641], the “ED50 (μM) T. brucei” value is reported as 16.3 µM.
For `Cc1nn(C)c(C)c1N[S+](=O)([O-])c1ccc(NCCC2CCN(C)CC2)nc1` [DDD88000, 6-[2-(1-Methyl-piperidin-4-yl)-ethylamino]-pyridine-3-sulfonic acid (1,3,5-trimethyl-1H-pyrazol-4-yl)-amide], the “ED50 (μM) T. brucei” value was 0.77 µM.
With `Cc1nn(C)c(C)c1N(C)[S+](=O)([O-])c1ccc(-c2cccc(CC3CCN(C)CC3)c2)cc1` [DDD90091] the “ED50 (μM) T. brucei” value was 0.063 µM.
In the case of `Cc1nn(C)c(C)c1N[S+](=O)([O-])c1ccc(NCCN2CCNCC2)nc1` [DDD86305], the “ED50 (μM) T. brucei” value is reported as over 1 µM.
For `Cc1nn(C)c(C)c1N[S+](=O)([O-])c1ccc(-c2ccnc(N3CCNC(C(C)C)C3)c2)cc1` (stereo not drawn) [DDD88549], the “ED50 (μM) T. brucei” value was 0.11 µM.
